Key:
[1] = molecular target: T1, ATP-dependent translocase ABCB1 (Homo sapiens, UniProt P08183, I1115F); assay: Activation of P-gp ATPase activity in human P-gp I1115F mutant expressed in HEK293FT cell microsomes at 20 uM incubated for 1 hr in presence of ATP by Glo-luminescence based microplate reader assay (reference value: 0.21 +/- 0.05 pmol/min/microg); design: species or system Microsome
[2] = molecular target: ATP-dependent translocase ABCB1 (Homo sapiens, UniProt P08183, I1115M); assay: Negative allosteric modulator activity at human P-gp I1115M mutant expressed in HEK293FT cells assessed as fold change in intracellular doxorubicin accumulation using doxorubicin as substrate at 1 uM incubated for 150 mins by microplate reader assay relative to DMSO; type: cell-based; settings: 2.5 h
[3] = molecular target: ATP-dependent translocase ABCB1 (Homo sapiens, UniProt P08183, T1226Y); assay: Negative allosteric modulator activity at human P-gp T1226Y mutant expressed in HEK293FT cells assessed as reversal of P-gp mediated PTX resistance by measuring sensitivity fold change incubated for 5 days by MTS assay; type: cell-based; settings: 120 h, time 5 day
[4] = molecular target: T2, ATP-dependent translocase ABCB1 (Homo sapiens, UniProt P08183); assay: Negative allosteric modulator activity at human wildtype P-gp expressed in HEK293FT cells assessed as reversal of P-gp mediated PTX resistance by measuring sensitivity fold change incubated for 5 days by MTS assay; type: cell-based; settings: 120 h, time 5 day
[5] = molecular target: T3, ATP-dependent translocase ABCB1 (Homo sapiens, UniProt P08183, I1115Y); assay: Negative allosteric modulator activity at human P-gp I1115Y mutant expressed in HEK293FT cells assessed as increase in intracellular doxorubicin accumulation using doxorubicin as substrate at 1 uM incubated for 150 mins by microplate reader assay (reference value: 97.3 +/- 3.7 %); type: cell-based; settings: 2.5 h
[6] = molecular target: T3, ATP-dependent translocase ABCB1; assay: Negative allosteric modulator activity at human P-gp I1115Y mutant expressed in HEK293FT cells assessed as fold change in intracellular doxorubicin accumulation using doxorubicin as substrate at 1 uM incubated for 150 mins by microplate reader assay relative to DMSO; type: cell-based; settings: 2.5 h
[7] = molecular target: ATP-dependent translocase ABCB1 (Homo sapiens, UniProt P08183, Q1193C); assay: Activation of P-gp ATPase activity in human P-gp Q1193C mutant expressed in HEK293FT cell microsomes assessed as fold change of ATPase activity at 20 uM incubated for 1 hr in presence of ATP by Glo-luminescence based microplate reader assay relative to DMSO; design: species or system Microsome
[8] = molecular target: T4, ATP-dependent translocase ABCB1 (Homo sapiens, UniProt P08183, L1113A); assay: Negative allosteric modulator activity at human P-gp L1113A mutant expressed in HEK293FT cells assessed as fold change in intracellular doxorubicin accumulation using doxorubicin as substrate at 1 uM incubated for 150 mins by microplate reader assay relative to DMSO; type: cell-based; settings: 2.5 h
[9] = molecular target: T2, ATP-dependent translocase ABCB1; assay: Negative allosteric modulator activity at human wildtype P-gp expressed in HEK293FT cells assessed as fold change in intracellular doxorubicin accumulation using doxorubicin as substrate at 1 uM incubated for 150 mins by microplate reader assay relative to DMSO; type: cell-based; settings: 2.5 h
[10] = molecular target: ATP-dependent translocase ABCB1 (Homo sapiens, UniProt P08183, I1115N); assay: Negative allosteric modulator activity at human P-gp I1115N mutant expressed in HEK293FT cells assessed as fold change in intracellular doxorubicin accumulation using doxorubicin as substrate at 1 uM incubated for 150 mins by microplate reader assay relative to DMSO; type: cell-based; settings: 2.5 h
[11] = molecular target: T4, ATP-dependent translocase ABCB1; assay: Negative allosteric modulator activity at human P-gp L1113A mutant expressed in HEK293FT cells assessed as reversal of P-gp mediated PTX resistance by measuring sensitivity fold change incubated for 5 days by MTS assay; type: cell-based; settings: 120 h, time 5 day
[12] = molecular target: ATP-dependent translocase ABCB1 (Homo sapiens, UniProt P08183, Q1193F); assay: Activation of P-gp ATPase activity in human P-gp Q1193F mutant expressed in HEK293FT cell microsomes assessed as fold change of ATPase activity at 20 uM incubated for 1 hr in presence of ATP by Glo-luminescence based microplate reader assay relative to DMSO; design: species or system Microsome
[13] = molecular target: ATP-dependent translocase ABCB1 (Homo sapiens, UniProt P08183, T1226A); assay: Negative allosteric modulator activity at human P-gp T1226A mutant expressed in HEK293FT cells assessed as fold change in intracellular doxorubicin accumulation using doxorubicin as substrate at 1 uM incubated for 150 mins by microplate reader assay relative to DMSO; type: cell-based; settings: 2.5 h
[14] = molecular target: T5, ATP-dependent translocase ABCB1 (Homo sapiens, UniProt P08183, I1115K); assay: Negative allosteric modulator activity at human P-gp I1115K mutant expressed in HEK293FT cells assessed as increase in intracellular doxorubicin accumulation using doxorubicin as substrate at 1 uM incubated for 150 mins by microplate reader assay (reference value: 97.8 +/- 3.1 %); type: cell-based; settings: 2.5 h
[15] = molecular target: ATP-dependent translocase ABCB1 (Homo sapiens, UniProt P08183, T1226F); assay: Negative allosteric modulator activity at human P-gp T1226F mutant expressed in HEK293FT cells assessed as fold change in intracellular doxorubicin accumulation using doxorubicin as substrate at 1 uM incubated for 150 mins by microplate reader assay relative to DMSO; type: cell-based; settings: 2.5 h
[16] = molecular target: ATP-dependent translocase ABCB1 (Homo sapiens, UniProt P08183, G1114L); assay: Negative allosteric modulator activity at human P-gp G1114L mutant expressed in HEK293FT cells assessed as fold change in intracellular doxorubicin accumulation using doxorubicin as substrate at 1 uM incubated for 150 mins by microplate reader assay relative to DMSO; type: cell-based; settings: 2.5 h
[17] = molecular target: T1, ATP-dependent translocase ABCB1; assay: Negative allosteric modulator activity at human P-gp I1115F mutant expressed in HEK293FT cells assessed as increase in intracellular doxorubicin accumulation using doxorubicin as substrate at 1 uM incubated for 150 mins by microplate reader assay (reference value: 65.5 +/- 0.9 %); type: cell-based; settings: 2.5 h
[18] = molecular target: ATP-dependent translocase ABCB1 (Homo sapiens, UniProt P08183, I1115L); assay: Negative allosteric modulator activity at human P-gp I1115L mutant expressed in HEK293FT cells assessed as increase in intracellular doxorubicin accumulation using doxorubicin as substrate at 1 uM incubated for 150 mins by microplate reader assay (reference value: 58.9 +/- 2.2 %); type: cell-based; settings: 2.5 h
[19] = molecular target: T5, ATP-dependent translocase ABCB1; assay: Negative allosteric modulator activity at human P-gp I1115K mutant expressed in HEK293FT cells assessed as fold change in intracellular doxorubicin accumulation using doxorubicin as substrate at 1 uM incubated for 150 mins by microplate reader assay relative to DMSO; type: cell-based; settings: 2.5 h
[20] = molecular target: ATP-dependent translocase ABCB1 (Homo sapiens, UniProt P08183, Q1193N); assay: Negative allosteric modulator activity at human P-gp Q1193N mutant expressed in HEK293FT cells assessed as reversal of P-gp mediated PTX resistance by measuring sensitivity fold change incubated for 5 days by MTS assay; type: cell-based; settings: 120 h, time 5 day

T1 sequence (P08183 whole entry I1115F): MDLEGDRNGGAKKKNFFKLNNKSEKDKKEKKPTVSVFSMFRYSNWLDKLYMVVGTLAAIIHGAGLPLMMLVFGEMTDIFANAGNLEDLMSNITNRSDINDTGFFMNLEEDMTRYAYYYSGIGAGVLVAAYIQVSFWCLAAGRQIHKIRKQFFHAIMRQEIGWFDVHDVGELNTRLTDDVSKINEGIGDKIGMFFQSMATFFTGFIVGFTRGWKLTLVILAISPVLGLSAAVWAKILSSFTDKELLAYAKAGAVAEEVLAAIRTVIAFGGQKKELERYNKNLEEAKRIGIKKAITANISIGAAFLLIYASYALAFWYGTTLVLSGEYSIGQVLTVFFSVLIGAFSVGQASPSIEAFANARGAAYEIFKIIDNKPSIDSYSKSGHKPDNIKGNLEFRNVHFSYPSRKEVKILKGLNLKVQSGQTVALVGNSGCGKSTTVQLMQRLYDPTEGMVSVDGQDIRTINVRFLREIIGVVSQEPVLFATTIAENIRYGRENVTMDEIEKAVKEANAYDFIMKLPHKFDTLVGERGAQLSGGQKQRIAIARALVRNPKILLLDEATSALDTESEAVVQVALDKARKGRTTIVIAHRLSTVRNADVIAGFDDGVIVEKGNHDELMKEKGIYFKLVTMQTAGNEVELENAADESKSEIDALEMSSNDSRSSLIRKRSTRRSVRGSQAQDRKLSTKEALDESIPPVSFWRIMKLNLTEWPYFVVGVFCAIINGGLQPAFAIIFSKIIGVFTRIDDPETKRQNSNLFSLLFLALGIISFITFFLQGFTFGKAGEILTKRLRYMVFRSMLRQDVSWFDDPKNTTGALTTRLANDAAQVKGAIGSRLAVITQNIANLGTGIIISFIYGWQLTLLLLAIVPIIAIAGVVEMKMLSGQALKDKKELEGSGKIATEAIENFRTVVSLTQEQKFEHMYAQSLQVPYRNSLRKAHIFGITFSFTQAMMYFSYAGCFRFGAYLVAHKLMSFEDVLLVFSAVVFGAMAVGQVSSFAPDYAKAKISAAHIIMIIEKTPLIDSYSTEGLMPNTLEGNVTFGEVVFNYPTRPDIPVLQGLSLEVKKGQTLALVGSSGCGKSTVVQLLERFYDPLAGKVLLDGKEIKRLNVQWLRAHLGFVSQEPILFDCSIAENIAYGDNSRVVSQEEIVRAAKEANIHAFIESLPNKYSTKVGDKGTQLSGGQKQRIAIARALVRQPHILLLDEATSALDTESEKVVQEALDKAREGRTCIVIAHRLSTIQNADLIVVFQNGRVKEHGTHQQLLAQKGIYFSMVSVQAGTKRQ
T4 sequence (P08183 whole entry L1113A): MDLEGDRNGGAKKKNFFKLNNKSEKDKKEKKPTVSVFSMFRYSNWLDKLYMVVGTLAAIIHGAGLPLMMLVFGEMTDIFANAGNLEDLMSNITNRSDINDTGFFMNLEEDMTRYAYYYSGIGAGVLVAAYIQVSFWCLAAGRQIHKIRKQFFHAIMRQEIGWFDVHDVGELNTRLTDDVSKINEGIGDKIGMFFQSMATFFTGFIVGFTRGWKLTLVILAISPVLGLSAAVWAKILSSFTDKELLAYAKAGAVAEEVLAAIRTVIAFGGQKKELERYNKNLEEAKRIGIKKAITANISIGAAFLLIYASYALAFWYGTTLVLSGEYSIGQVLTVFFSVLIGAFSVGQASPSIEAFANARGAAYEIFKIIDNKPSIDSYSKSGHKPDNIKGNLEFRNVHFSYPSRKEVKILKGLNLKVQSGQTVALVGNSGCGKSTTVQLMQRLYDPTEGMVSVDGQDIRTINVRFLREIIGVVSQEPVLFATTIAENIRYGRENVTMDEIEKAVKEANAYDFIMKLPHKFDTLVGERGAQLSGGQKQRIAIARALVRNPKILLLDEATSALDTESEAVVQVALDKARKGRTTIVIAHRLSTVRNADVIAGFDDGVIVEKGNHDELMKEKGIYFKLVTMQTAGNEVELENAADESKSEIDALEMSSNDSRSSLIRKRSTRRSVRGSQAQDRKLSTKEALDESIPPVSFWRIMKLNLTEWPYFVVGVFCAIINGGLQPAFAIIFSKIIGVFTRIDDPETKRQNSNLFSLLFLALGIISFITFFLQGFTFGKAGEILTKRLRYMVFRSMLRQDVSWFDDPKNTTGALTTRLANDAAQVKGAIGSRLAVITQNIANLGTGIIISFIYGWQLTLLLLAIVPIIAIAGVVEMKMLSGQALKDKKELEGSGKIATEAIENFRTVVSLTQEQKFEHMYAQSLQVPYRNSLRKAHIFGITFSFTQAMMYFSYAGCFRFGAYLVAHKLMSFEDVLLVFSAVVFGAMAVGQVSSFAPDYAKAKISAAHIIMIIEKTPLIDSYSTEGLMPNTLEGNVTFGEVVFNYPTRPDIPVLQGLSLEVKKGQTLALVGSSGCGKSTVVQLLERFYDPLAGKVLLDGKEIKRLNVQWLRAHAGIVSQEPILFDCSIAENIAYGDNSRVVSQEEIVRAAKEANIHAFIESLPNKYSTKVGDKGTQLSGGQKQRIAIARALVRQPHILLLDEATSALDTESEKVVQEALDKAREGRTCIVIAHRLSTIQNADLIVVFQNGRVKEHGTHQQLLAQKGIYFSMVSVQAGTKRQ
T5 sequence (P08183 whole entry I1115K): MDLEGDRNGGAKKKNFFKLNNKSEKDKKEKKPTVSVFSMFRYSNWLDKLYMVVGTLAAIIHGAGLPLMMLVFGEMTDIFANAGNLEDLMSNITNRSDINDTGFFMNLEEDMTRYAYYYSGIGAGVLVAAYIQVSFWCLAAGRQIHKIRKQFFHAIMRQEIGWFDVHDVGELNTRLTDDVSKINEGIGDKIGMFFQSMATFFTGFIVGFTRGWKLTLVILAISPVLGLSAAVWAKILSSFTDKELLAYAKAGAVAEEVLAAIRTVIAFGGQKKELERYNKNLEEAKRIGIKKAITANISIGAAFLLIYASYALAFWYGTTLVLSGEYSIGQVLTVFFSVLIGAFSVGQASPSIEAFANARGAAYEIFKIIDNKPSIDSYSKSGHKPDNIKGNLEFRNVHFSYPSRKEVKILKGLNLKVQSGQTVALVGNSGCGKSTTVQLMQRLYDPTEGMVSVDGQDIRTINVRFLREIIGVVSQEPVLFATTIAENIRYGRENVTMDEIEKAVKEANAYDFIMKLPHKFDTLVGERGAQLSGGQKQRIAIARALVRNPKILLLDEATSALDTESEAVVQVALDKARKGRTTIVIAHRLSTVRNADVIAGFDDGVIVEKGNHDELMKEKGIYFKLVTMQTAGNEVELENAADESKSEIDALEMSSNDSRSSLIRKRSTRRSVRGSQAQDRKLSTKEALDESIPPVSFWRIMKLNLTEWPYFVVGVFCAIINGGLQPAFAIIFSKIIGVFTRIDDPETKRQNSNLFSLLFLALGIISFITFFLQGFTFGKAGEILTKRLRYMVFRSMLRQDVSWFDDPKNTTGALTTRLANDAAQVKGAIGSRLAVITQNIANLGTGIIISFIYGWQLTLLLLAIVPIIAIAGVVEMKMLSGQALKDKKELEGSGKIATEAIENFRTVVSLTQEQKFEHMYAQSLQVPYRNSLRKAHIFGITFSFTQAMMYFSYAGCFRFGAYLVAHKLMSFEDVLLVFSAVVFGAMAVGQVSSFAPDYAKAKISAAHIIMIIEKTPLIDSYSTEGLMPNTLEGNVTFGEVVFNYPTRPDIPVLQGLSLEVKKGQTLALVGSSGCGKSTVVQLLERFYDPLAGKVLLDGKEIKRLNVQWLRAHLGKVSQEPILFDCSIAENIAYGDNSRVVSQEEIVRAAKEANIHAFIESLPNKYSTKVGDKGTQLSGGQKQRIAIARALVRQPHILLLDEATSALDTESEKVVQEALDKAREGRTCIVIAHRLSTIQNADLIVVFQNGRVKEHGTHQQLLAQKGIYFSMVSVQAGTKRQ
T3 sequence (P08183 whole entry I1115Y): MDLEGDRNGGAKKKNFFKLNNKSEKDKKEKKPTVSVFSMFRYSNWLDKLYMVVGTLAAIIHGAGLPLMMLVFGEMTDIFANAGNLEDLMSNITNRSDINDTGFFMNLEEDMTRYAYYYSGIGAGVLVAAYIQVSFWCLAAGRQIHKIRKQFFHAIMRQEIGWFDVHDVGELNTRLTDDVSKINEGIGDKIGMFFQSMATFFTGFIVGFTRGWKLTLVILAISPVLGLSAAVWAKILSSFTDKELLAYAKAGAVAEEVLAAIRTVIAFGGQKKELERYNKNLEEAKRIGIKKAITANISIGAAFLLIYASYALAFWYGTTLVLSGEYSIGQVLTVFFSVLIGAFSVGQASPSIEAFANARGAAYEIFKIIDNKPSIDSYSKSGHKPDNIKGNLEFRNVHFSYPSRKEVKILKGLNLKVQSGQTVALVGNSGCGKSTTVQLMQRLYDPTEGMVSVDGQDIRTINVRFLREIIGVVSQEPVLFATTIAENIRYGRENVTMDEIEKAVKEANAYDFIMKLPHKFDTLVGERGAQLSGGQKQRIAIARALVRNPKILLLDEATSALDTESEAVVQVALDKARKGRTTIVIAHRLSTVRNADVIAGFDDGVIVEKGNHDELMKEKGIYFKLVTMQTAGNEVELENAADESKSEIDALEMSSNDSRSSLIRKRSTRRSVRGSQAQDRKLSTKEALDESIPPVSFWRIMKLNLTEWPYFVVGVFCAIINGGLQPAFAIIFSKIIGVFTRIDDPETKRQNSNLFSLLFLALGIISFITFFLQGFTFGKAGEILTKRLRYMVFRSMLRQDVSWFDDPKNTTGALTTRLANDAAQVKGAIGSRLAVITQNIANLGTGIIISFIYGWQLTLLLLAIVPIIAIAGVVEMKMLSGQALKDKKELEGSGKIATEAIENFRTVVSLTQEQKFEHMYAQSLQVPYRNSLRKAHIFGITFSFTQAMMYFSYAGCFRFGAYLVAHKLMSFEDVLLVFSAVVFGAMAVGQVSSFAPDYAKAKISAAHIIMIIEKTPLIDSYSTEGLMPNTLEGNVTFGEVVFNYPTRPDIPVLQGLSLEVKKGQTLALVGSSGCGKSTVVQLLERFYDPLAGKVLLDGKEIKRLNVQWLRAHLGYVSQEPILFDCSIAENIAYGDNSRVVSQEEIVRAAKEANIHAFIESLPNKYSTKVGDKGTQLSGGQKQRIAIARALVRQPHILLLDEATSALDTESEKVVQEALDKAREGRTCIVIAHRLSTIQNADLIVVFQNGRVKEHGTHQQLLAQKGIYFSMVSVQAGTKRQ

O=c1cc(-c2ccc(OCCOCCNCc3ccccc3)cc2)oc2ccccc12
Activity [1]: 0.25 pmol/min/µg | fold change (FC) [2]: 1 | fold change (FC) [3]: 62.4 | fold change (FC) [4]: 73 | Activity [5]: 96.4% | fold change (FC) [6]: 1 | fold change (FC) [7]: 1.3 | fold change (FC) [8]: 1.8 | fold change (FC) [9]: 1.9 | fold change (FC) [10]: 1 | fold change (FC) [11]: 140.5 | fold change (FC) [12]: 1.1 | fold change (FC) [13]: 1 | Activity [14]: 100.1% | fold change (FC) [15]: 1.5 | fold change (FC) [16]: 1 | Activity [17]: 83.8% | Activity [18]: 97.2% | fold change (FC) [19]: 1 | fold change (FC) [20]: 51.4
